Measurements taken from patent US7964376B2, “Chimeric proteins and their use in methods to screen for sweet taste modulators” (Givaudan SA, priority 2006, dated 2011).
Residues, ends and D or L forms follow the SMILES beside them.

Assays:
[1] = test system: Mock transfected HEK293T/Gα16-gustducin 44 cells; assay: Fluo-4 calcium assay, negative control mock transfection (Examples 6a, 6b); assay type: cell-based, human; conditions: mean of six replicates, Calcium Chloride (2 mM), Sucralose (0.5 mM), perillartine (50 μM); for Neg. control (mock transfection) AVG (net increase in fluorescence over baseline): Example 6a, aspartame (0.85 mM), cinnamonitrile (100 EM), cyclamate (1 mM), NDHC (0.33 mM); for Neg. control (mock transfection) AVG (mean ΔF/F): Example 6b
From the text: (§1) The following ligands were used for to stimulate the transfected cells in the concentrations as indicated in brackets: […]

hCaSR = biological target: T1, hCaSR (Homo sapiens, UniProt P41180); assay: Fluo-4 calcium assay, transiently transfected HEK293T/Gα16-gustducin 44 cells (Example 6a); assay type: cell-based; conditions: for hCaSR AVG (net increase in fluorescence over baseline): mean of six replicates, Calcium Chloride (2 mM), Sucralose (0.5 mM), aspartame (0.85 mM), perillartine (50 μM), cinnamonitrile (100 EM), cyclamate (1 mM), NDHC (0.33 mM)
T1 sequence (P41180 20-1078): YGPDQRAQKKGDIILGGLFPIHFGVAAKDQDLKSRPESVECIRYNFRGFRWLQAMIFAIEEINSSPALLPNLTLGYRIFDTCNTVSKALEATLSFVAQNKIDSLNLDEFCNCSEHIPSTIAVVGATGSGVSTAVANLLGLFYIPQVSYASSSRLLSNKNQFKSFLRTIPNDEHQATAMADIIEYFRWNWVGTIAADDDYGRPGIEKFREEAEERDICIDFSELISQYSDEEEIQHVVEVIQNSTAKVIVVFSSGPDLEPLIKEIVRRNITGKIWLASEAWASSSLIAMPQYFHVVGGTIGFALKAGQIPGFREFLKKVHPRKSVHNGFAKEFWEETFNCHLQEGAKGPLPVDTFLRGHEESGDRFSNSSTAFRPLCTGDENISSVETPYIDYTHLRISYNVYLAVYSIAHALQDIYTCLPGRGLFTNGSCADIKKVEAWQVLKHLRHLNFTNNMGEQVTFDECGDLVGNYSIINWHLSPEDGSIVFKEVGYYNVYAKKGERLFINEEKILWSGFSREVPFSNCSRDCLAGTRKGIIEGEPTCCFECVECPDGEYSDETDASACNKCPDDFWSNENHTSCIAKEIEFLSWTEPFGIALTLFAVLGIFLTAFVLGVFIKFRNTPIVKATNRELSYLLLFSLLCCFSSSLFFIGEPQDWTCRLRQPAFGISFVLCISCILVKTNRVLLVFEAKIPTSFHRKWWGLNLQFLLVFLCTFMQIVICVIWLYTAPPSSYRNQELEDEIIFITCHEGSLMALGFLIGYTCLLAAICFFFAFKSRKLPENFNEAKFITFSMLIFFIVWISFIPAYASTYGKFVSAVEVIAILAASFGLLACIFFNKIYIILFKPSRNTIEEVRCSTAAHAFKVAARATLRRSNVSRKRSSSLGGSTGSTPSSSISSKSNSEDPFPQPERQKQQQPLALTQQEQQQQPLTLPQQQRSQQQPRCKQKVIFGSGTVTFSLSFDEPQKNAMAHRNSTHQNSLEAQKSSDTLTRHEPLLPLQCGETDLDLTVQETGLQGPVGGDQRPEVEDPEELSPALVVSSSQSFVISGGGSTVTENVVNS
From the text: The hCaSR vector is used as positive control for a GPCR that is sensitive to calcium, as it is sensitive to calcium and the calcium binding site lies in the VFT of this receptor, which is where the VFT for the chimera is derived from.
as §1

CSR::T1R2-b homomer = biological target: T2, CSR::T1R2-b homomer (Homo sapiens, UniProt P41180+Q8TE23); assay: Fluo-4 calcium assay, transiently transfected HEK293T/Gα16-gustducin 44 cells (Example 6b); conditions: mean of six replicates; Calcium Chloride (2 mM), Sucralose (0.5 mM), perillartine (50 μM)
T2 sequence (P41180+Q8TE23 with tags, fused parts or gaps): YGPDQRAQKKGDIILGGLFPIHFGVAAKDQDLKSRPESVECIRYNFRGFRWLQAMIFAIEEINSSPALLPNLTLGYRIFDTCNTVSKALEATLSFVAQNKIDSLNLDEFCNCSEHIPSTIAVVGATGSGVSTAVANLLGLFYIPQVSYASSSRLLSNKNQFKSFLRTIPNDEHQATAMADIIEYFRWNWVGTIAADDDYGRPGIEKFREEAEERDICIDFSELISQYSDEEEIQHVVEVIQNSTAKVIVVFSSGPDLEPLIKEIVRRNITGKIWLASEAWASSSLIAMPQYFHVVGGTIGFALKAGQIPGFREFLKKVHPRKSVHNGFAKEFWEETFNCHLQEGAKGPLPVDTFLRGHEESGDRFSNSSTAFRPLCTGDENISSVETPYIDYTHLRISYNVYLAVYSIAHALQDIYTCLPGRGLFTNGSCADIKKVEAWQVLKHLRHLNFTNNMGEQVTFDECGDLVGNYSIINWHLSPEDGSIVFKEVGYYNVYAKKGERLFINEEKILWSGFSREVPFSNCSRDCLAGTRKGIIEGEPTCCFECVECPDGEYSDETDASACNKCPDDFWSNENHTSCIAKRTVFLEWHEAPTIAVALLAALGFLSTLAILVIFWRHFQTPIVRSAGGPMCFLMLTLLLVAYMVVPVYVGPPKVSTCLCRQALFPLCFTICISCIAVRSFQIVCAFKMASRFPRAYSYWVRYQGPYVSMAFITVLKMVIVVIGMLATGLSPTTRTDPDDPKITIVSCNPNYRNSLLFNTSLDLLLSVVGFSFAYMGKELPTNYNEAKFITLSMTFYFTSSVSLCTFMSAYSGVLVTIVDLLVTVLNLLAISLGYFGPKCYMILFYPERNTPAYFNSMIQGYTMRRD
Protocol: (§2) Fluo-4 is a fluorescent indicator for intracellular calcium and allows to determine changes in the calcium concentration, in particular an increase in response to receptor activation occurring after ligand addition.
(§3) Black, clear-bottom 96-well plates were used for all assays. They were seeded the day before with 8500 transfected cells per well and maintained at 37° C. overnight in an a growth medium appropriate for the cells used. For HEK293 cells, Dulbecco's Modified Eagle medium containing high glucose, L-glutamine, pyroxidine hydrochloride, and supplemented with 10% fetal bovine serum was used for growth and maintenance of the HEK293 cells.
(§4) After the initial 1 hour loading period, the plates were washed 5 times with 100 μl per well of reduced calcium C1 buffer using an automated plate washer (BioTek) and after washing, the plate was further incubated for 30 minutes at room temperature in the dark to allow for complete de-esterification of the Fluo-4-AM. The buffer solutions were discarded, the plate was washed 5 times with 100 μl reduced calcium C1 wash buffer and finally the cells were reconstituted in 180 μl of reduced calcium C1 wash buffer.
(§5) For assay reading, the plate was placed in a FLIPR (fluorescence imaging plate reader (FLIPR-Tetra, Molecular Devices)), and receptor activation was initiated following addition of 20 μl of a 10× concentrated ligand stock solution, which were prepared in reduced calcium C1 buffer.
(§6) Receptor activation is given in relative fluorescence units (RFU) and is defined by the following equation: Fluorescence Increase=Maximum Fluorescence−baseline fluorescence, wherein the baseline fluorescence represents the mean fluorescence calculated for the first 10 to 15 seconds prior to ligand addition.
As a negative control, mock transfected cells were exposed to the same concentration of ligand and the concentration of calcium traces not corresponding to a signal was determined.
(§7) The calcium mobilization signals obtained are increase in peak fluorescence (F) normalized to the baseline fluorescence (F0). […]

[2] = biological target: T3, T1R2/T1R3 sweet heterodimer (Homo sapiens, UniProt Q7RTX0+Q8TE23, C757R); assay: Fluo-4 calcium assay, transiently transfected HEK293T/Gα16-gustducin 44 cells (Examples 6a, 6b); assay type: cell-based; conditions: Example 6b; mean of six replicates; Calcium Chloride (2 mM), Sucralose (0.5 mM), perillartine (50 μM)
T3 construct: expressed in transfected cells; host or cells: HEK293T cells stably expressing Ga16-gustducin 44, transient co-transfection of pcDNA3.1 constructs
T3 sequence (Q8TE23 20-839): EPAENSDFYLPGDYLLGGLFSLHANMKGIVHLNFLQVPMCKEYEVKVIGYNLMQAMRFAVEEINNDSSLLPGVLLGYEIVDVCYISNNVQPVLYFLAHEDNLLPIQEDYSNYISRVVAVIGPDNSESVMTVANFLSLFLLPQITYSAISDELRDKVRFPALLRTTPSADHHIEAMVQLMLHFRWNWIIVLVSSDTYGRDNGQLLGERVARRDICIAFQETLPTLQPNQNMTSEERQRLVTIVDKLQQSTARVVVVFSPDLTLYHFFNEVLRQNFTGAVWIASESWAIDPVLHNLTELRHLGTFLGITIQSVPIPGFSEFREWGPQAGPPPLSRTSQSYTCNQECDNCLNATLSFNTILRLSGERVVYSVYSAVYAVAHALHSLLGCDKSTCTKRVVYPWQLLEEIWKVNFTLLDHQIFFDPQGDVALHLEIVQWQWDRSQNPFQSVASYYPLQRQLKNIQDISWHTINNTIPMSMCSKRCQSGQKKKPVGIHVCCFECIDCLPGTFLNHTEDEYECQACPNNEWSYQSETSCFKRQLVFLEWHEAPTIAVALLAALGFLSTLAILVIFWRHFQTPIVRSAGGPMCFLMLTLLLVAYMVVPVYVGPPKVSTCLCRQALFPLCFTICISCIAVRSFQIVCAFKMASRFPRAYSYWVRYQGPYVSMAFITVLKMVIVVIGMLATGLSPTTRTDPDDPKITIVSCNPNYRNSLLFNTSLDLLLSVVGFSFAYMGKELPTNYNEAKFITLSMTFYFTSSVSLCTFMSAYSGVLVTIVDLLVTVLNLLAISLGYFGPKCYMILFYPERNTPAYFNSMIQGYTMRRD
T3 sequence (Q7RTX0 21-852 C757R): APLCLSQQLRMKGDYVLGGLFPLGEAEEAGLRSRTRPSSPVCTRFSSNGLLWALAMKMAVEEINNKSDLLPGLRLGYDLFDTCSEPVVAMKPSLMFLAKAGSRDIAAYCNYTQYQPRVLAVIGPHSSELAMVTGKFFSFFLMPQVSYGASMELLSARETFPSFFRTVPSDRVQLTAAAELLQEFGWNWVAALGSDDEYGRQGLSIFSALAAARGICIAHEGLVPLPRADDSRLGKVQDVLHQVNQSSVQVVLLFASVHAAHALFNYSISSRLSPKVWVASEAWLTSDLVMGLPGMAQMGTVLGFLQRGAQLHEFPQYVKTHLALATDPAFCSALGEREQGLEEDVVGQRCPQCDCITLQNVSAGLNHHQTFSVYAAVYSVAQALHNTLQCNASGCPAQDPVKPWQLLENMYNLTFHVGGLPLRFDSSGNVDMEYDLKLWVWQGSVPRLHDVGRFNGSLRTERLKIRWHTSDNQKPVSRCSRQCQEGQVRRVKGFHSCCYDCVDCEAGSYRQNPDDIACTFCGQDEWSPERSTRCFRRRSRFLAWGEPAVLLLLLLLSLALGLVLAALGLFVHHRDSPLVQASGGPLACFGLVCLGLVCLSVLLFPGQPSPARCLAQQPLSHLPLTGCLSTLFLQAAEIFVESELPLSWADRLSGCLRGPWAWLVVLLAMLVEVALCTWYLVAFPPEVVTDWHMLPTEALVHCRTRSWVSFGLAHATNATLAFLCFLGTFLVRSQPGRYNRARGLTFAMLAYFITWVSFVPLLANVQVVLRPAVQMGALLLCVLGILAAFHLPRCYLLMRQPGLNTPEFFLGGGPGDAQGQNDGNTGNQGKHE
From the text: as §1

[3] = biological target: T4, CSR::T1R2-b/CSR::T1R3-b chimeric heterodimer (Homo sapiens, UniProt P41180+Q7RTX0+Q8TE23); assay: Fluo-4 calcium assay, transiently transfected HEK293T/Gα16-gustducin 44 cells (Example 6b); conditions: mean of six replicates; Calcium Chloride (2 mM), Sucralose (0.5 mM), perillartine (50 μM)
T4 sequence (P41180+Q8TE23 with tags, fused parts or gaps): T2 sequence (P41180+Q8TE23 with tags, fused parts or gaps)
T4 sequence (P41180+Q7RTX0 with tags, fused parts or gaps): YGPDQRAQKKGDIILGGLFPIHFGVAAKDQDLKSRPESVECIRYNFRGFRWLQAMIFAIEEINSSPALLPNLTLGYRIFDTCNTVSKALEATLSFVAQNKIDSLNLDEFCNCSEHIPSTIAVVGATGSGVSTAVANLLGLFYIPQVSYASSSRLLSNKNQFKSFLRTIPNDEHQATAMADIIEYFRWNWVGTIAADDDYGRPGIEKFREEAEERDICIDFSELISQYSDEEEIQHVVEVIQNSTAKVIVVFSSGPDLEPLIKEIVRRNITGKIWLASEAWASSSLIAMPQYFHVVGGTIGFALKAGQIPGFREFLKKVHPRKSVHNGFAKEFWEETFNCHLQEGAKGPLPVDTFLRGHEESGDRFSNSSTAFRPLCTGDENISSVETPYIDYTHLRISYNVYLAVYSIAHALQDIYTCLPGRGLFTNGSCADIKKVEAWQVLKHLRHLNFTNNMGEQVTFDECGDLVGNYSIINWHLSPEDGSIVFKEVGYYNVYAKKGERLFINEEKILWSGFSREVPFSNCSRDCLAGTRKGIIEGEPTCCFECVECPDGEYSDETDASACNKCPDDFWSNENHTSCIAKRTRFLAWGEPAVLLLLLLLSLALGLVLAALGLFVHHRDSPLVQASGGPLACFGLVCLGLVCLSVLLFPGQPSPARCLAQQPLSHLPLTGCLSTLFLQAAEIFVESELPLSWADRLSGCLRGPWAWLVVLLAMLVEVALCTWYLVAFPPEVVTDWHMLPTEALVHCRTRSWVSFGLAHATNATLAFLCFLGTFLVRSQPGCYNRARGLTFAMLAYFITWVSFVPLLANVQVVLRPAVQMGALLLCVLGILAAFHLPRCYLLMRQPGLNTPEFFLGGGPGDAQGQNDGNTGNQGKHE
Protocol: as §2, §3, §4, §5, §6
As a negative control, mock transfected cells were exposed to the same concentration of ligand and the concentration of calcium traces not corresponding to a signal was determined. […]
as §7

SMILES | Neg. control (mock transfection) AVG (net increase in fluorescence over baseline) [1] [RFU] | hCaSR AVG (net increase in fluorescence over baseline) (hCaSR) [RFU] | CSR::R2-b alone AVG (mean ΔF/F) (CSR::T1R2-b homomer) | T1R2/T1R3 AVG (mean ΔF/F) [2] | Neg. control (mock transfection) AVG (mean ΔF/F) [1] | response of hCaSR (in words) (hCaSR; Example 6a) | CSR::T1R2-b/CSR::T1R3-b AVG (mean ΔF/F) [3]
COC(=O)[C@H](Cc1ccccc1)NC(=O)[C@@H](N)CC(=O)O [Aspartame] (H-Asp-Phe-OMe) | −125 | 41 |  |  |  |  | 
[Ca+2].[Cl-].[Cl-] [Calcium, Calcium Chloride] | 1570 | 7610 | 0.424 ΔF/F | 0.19 ΔF/F | 0.20 ΔF/F | responded | 0.46 ΔF/F
N#CC=Cc1ccccc1 [Cinnamonitrile] |  | 197 |  |  |  |  | 
C=C(C)[C@@H]1CC=C(/C=N/O)CC1 [Perillartine] | −379 | 73 | 0.11 ΔF/F | 0.5 ΔF/F | 0.06 ΔF/F |  | 0.169 ΔF/F
OC[C@H]1O[C@H](O[C@]2(CCl)O[C@H](CCl)[C@@H](O)[C@@H]2O)[C@H](O)[C@@H](O)[C@H]1Cl [Sucralose] |  | 22 | 0.016 ΔF/F | 0.12 ΔF/F | 0.03 ΔF/F |  | 0.017 ΔF/F
